The results in this text go back to PubChem BioAssay (NCI).

Test systems include OVCAR-3 ovarian; KM12 colon; HL-60(TB) leukemia; CCRF-CEM leukemia; NCI-H226 lung; OVCAR-8 ovarian; NCI-H460 lung; SNB-75 CNS; UO-31 renal; SK-MEL-28 melanoma; COLO 205 colon; SW-620 colon; IGROV1 ovarian; OVCAR-4 ovarian; MOLT-4 leukemia; CAKI-1 renal; A549 NSCLC; SK-MEL-2 melanoma; SNB-19 CNS; RPMI-8226 leukemia.
What all share (assay): growth of human tumour cells (NCI), 48 h

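All cell lines were grown in 96-well plates and treated with compound for 48 hours. TGI is the concentration that stops growth completely.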 A value given as a limit tells only on which side of the number the result lay.

Take `O=C(CCN1CCOCC1)C(=Cc1ccccc1)C(=O)CCN1CCOCC1`: the TGI is 14.4 µM in the assay on OVCAR-3 ovarian; 13 µM in the assay with KM12 colon; 3.52 µM with HL-60(TB) leukemia; 7.84 µM with CCRF-CEM leukemia; 29.4 µM in the assay with NCI-H226 lung; 9.88 µM in the assay with OVCAR-8 ovarian. Further, the TGI with NCI-H460 lung is 28.3 µM; in the assay with SNB-75 CNS, 29.7 µM; in the assay with UO-31 renal it was 27.6 µM; in the assay on SK-MEL-28 melanoma it was 5.64 µM; in the assay with COLO 205 colon, 6.97 µM; with SW-620 colon it was 4.29 µM. In addition, the TGI in the assay on IGROV1 ovarian was 20.3 µM; in the assay with OVCAR-4 ovarian, 19.9 µM; with MOLT-4 leukemia, 3.09 µM; in the assay on CAKI-1 renal it was 13.5 µM; in the assay on A549 NSCLC, 35.8 µM; in the assay on SK-MEL-2 melanoma it was 22.6 µM. In addition, the figures for the TGI in the assay on SNB-19 CNS and with RPMI-8226 leukemia were 28.3 µM and 4.14 µM, respectively.
On to `COc1cc2oc(=O)ccc2cc1CC=C(C)C`, for which the TGI in the assay on OVCAR-3 ovarian was over 100 µM; with KM12 colon it was over 100 µM; with HL-60(TB) leukemia, 33.1 µM; with CCRF-CEM leukemia, over 100 µM; in the assay on NCI-H226 lung, 98.6 µM; with OVCAR-8 ovarian, over 100 µM. For the same molecule, the TGI with NCI-H460 lung is over 100 µM; in the assay with SNB-75 CNS it was over 100 µM; in the assay with UO-31 renal, 97.9 µM; with SK-MEL-28 melanoma, over 100 µM; in the assay on COLO 205 colon, over 100 µM; with SW-620 colon, over 100 µM. The TGI in the assay on IGROV1 ovarian, in the assay with OVCAR-4 ovarian, in the assay with MOLT-4 leukemia, in the assay with CAKI-1 renal, with A549 NSCLC and in the assay on SK-MEL-2 melanoma was over 100 µM throughout. The TGI is over 100 µM in the assay on SNB-19 CNS and 61 µM with RPMI-8226 leukemia.
For the molecule `CN(C)Cc1cc(C(C)(C)C)cc(C2CCCCC2)c1O`, the TGI in the assay on OVCAR-3 ovarian stood at 28.3 µM; with KM12 colon it was 26.4 µM; with HL-60(TB) leukemia, 33.9 µM; in the assay with CCRF-CEM leukemia it was 27.1 µM; with NCI-H226 lung, 31.2 µM; with OVCAR-8 ovarian it was 26.4 µM. Also, the TGI with NCI-H460 lung was determined as 38.3 µM; in the assay with SNB-75 CNS, 22.1 µM; in the assay with UO-31 renal, 32.5 µM; in the assay on SK-MEL-28 melanoma, 26.3 µM; in the assay with COLO 205 colon, 27.2 µM; in the assay with SW-620 colon it was 30.2 µM. Besides, the TGI with IGROV1 ovarian was 34.8 µM; in the assay with OVCAR-4 ovarian it was 24.4 µM; in the assay on MOLT-4 leukemia, 22.6 µM; in the assay with CAKI-1 renal, 35 µM; in the assay with A549 NSCLC, 26.5 µM; in the assay with SK-MEL-2 melanoma it was 35 µM. Further, in the assay on SNB-19 CNS, the TGI came out at 25.6 µM.
As to `CCN(CC)CCN(C(=O)c1ccc(F)cc1)c1ccccc1N`, the TGI with OVCAR-3 ovarian, in the assay on KM12 colon, with HL-60(TB) leukemia, with CCRF-CEM leukemia, with NCI-H226 lung and in the assay on OVCAR-8 ovarian was over 10 µM in each case. In addition, the TGI in the assay on NCI-H460 lung, in the assay on SNB-75 CNS, in the assay on UO-31 renal, in the assay on SK-MEL-28 melanoma, in the assay on COLO 205 colon and in the assay on SW-620 colon was over 10 µM throughout. For the same molecule, the TGI in the assay with IGROV1 ovarian, in the assay on OVCAR-4 ovarian, in the assay on MOLT-4 leukemia, in the assay on CAKI-1 renal, in the assay on A549 NSCLC and in the assay on SK-MEL-2 melanoma was over 10 µM each time. For the same molecule, the TGI in the assay with SNB-19 CNS and with RPMI-8226 leukemia was over 10 µM each time.
Consider `NCc1cc(O)c(O)c(O)c1`, for which the TGI with OVCAR-3 ovarian, in the assay on KM12 colon, in the assay on HL-60(TB) leukemia, in the assay on CCRF-CEM leukemia, in the assay with NCI-H226 lung and in the assay on OVCAR-8 ovarian was over 100 µM in each case. Moreover, the TGI in the assay on NCI-H460 lung, with SNB-75 CNS, with UO-31 renal, in the assay on SK-MEL-28 melanoma, in the assay on COLO 205 colon and in the assay with SW-620 colon was over 100 µM each time. Further, the TGI in the assay with IGROV1 ovarian, in the assay with OVCAR-4 ovarian, in the assay with MOLT-4 leukemia, with CAKI-1 renal, in the assay with A549 NSCLC and in the assay with SK-MEL-2 melanoma was over 100 µM each time. Also, the TGI with SNB-19 CNS and in the assay with RPMI-8226 leukemia was over 100 µM in each case.
On to `O=C(N/N=C\C(F)(F)F)c1ccncc1`, for which the TGI with OVCAR-3 ovarian, in the assay with KM12 colon, in the assay with HL-60(TB) leukemia, with CCRF-CEM leukemia, in the assay on NCI-H226 lung and with OVCAR-8 ovarian was over 100 µM in each case. For the same molecule, the TGI in the assay on NCI-H460 lung, with SNB-75 CNS, in the assay with UO-31 renal, in the assay on SK-MEL-28 melanoma, in the assay on COLO 205 colon and with SW-620 colon was over 100 µM throughout. Also, the TGI with IGROV1 ovarian, in the assay on OVCAR-4 ovarian, with MOLT-4 leukemia, in the assay with CAKI-1 renal, in the assay with SK-MEL-2 melanoma and with SNB-19 CNS was over 100 µM throughout. The same molecule yielded a TGI with RPMI-8226 leukemia of over 100 µM.
